According to paper PMC6754136 (PLoS ONE, 2019):
Like-named read-outs stand apart in the source and are kept apart here.

Columns and labels:
[1] = molecular target: T1, partially purified recombinant human PDE6C (Homo sapiens, UniProt P51160); test: PDE6C inhibition assay (GMP production); assay type: biochemical
T1 construct: partially purified recombinant full-length human PDE6C; purchased SB Drug Discovery; host or cells: insect cells
Experimental: PDE6C inhibition was measured using the same method as described for PDE5 with modifications. […] The final reaction volume was 50 μL. […] Reactions were stopped as described above for PDE5 enzyme assays, and GMP was quantified as described above. […] The amount of GMP produced in these samples was subtracted from all samples before normalizing against untreated controls.

[2] = mitochondrial viability assay with resazurin; assay type: cell-based, human; conditions: human, 0.01–10 μM; for viability at 3 days, 10 μM: four cell lines, even at the highest concentration tested (10 μM)
Experimental: (§1) The human cell lines SH-SY5Y (SY5Y, ATCC CRL-2266), SK-MEL-5 (SKMEL-5, ATCC HTB-70), and NCI-H187 (H187, ATCC CRL-5804) were cultured in RPMI medium supplemented with 10% FBS and no antibiotics. These three cell lines were generously provided by the laboratory of Susan Lindquist via Luke Whitesell (currently at the University of Toronto, Toronto, ON, Canada). BJ-hTERT (described in [27], generously provided by Robert Weinberg, Whitehead Institute, Cambridge MA, USA) was cultured in 4:1 DMEM:M199 medium supplemented with 15% FBS and no antibiotics. All cell lines were grown and assayed at 37 °C, 5% CO2. All cell lines were screened for mycoplasma contamination by PCR (Mycoscope Detection Kit, Fisher Scientific) before use in assays.
(§2) For viability assays, cells were plated in black, clear bottom 384-well tissue culture-treated plates (Corning) and incubated overnight in the media described above but supplemented with 50 U/mL penicillin-streptomycin antibiotic (Life Technologies). Then, DMSO (no drug controls) and PDE5 inhibitors (0.01–10 μM; synthesized as described above or purchased from Selleck Chemicals) were added using a Hewlett-Packard D300 Digital Dispenser (Tecan) and incubated for 3 days. Maximum DMSO concentration was normalized to 0.1% of the total well volume for all wells. Resazurin (R & D Systems) was diluted 1:20 into each well and incubated for up to 4 hours. Fluorescence was read in a Tecan plate reader (excitation = 570 nm, emission = 585 nm). Wells treated with PDE5 inhibitors were normalized against control wells treated with DMSO to measure percent mitochondrial viability (100 = no effect on mitochondrial viability).

[3] = tested on: BJ-hTERT cells; test: cellular GMP levels after inhibitor treatment; assay type: cell-based, human; conditions: 20 μM inhibitor, 1 hour; mean ± SEM; p<0.001
Experimental: For assaying PDE5 inhibitor effects on GMP levels in a cell line, BJ-hTERT cells were plated in 6-well plates (Corning) in the media described above. When cells were 80% confluent, fresh, pre-warmed media with DMSO (untreated controls) or 20 μM sildenafil, 3, or 7 was added and incubated for 1 hour. Maximum DMSO concentration in all samples was 0.2% of the total well volume. Cells were washed once with cold 0.9% NaCl. 800 μL of 80:20 methanol:water spiked with 500 nM isotopically labeled amino acids as internal standards was added while cells were on dry ice. Cells were detached with a cell scraper. Extracts were vortexed for 10 minutes and centrifuged at maximum speed at 4 °C to remove debris. Extracts were dried down in a vacuum dryer and stored at -80 °C. An additional sample was reserved for visual inspection of cell health by confocal light microscopy and for cell counting with a hemocytometer. Three independent assays were conducted in total, with 1–2 replicates per assay. To analyze GMP levels, samples were reconstituted in 50 μL LC-MS grade water and analyzed by HPLC-UV-MS as described in the general procedures and for enzyme inhibition and kinetics assays. The amino acid standards were analyzed in full scan positive mode with mass windows m/z 50–800. GMP peak areas were normalized to the peak area of the internal standard ^13C4, ^15N-threonine or ^13C6, ^15N3-histidine to account for variations in extraction or resuspension volume. The peak areas were then normalized to the average GMP peak area in undrugged controls and multiplied by 100 to obtain the percent GMP.

[4] = tested on: human PDE5; conditions: cited from earlier work
[5] = tested on: PDE6 isoforms; design: method as in PMID 16780568, PMID 16123402; conditions: cited from earlier work
[6] = molecular target: purified recombinant human PDE5 (Homo sapiens, UniProt O76074); test: in vitro PDE5 inhibition assay measuring GMP production from cGMP (HPLC-UV-MS); assay type: biochemical
Experimental: STRENDA guidelines were considered in the description of the following enzyme activity assays. PDE5 inhibition and kinetics assays were carried out according to the method of Kincaid and Manganiello [31] and Dell’Agli et al. 1 nM recombinant human PDE5 (catalytic domain consisting of amino acids 537–875, Abcam, ab125581) was pre-incubated with PDE5 inhibitors (synthesized in-house as described above or purchased from Selleck Chemicals) in 40 mM tris-hydrochloric acid, pH 7.8, containing 10 mM MgCl2. […]. PDE5 inhibitors were added to each reaction using a Hewlett-Packard D300 Digital Dispenser (Tecan). Maximum DMSO concentration was 0.1% of the final reaction volume for all samples. After incubation at 25 °C for 5 minutes to allow interaction between PDE5 and drugs, the reaction was started with the addition of 0.3 μM cGMP (Enzo Life Sciences, Inc.) and incubated at 25 °C for 15 minutes. The final reaction volume was 100 μL. Reactions were stopped with the addition of 100 μL of 0.1 M HCl and neutralized by adding 0.1 M NaOH until the pH was 7. […] The amount of GMP produced was measured by HPLC-UV-MS as described in the general procedures. Reaction mixture components were separated with a ramp gradient of solvent A and B run at a flow rate of 0.5 mL/min as follows: 0–4 minutes 0% B, 4–7 minutes 0–95% B, 7–8 minutes 95% B, 8–11.1 minutes 0% B. GMP was measured using selected reaction monitoring in positive mode for a centroid center mass of 152.
A calibration curve using known concentrations of GMP was generated using the HPLC-UV-MS method described above to quantify the absolute amount of GMP in each reaction (S13 Fig). The linear range was from 5.9 nM to 3 μM. The limit of detection (LOD), defined as the lowest concentration producing a detectable peak above background, was 0.1 nM. The lower limit of quantification (LLOQ), defined as the lowest concentration used to generate a standard curve with r^2 > 0.95, was 5.9 nM. The upper limit of quantification (ULOQ), defined as the highest concentration used to generate a standard curve with r^2 > 0.95, was 3 μM. A GMP calibration curve was generated with each individual run of the HPLC-UV-MS.
To measure the IC50 as a result of treatment with each icariin analog, the in vitro inhibition enzyme assay as described above was performed, and GMP levels were normalized to no-drug controls and multiplied by 100 to obtain the percent PDE5 activity. IC50 mean ± SEM values were determined by nonlinear-regression fitting of the percent PDE5 activity data using the [inhibitor] vs response–variable slope (four parameters) equation in Prism (version 7.0a and version 8). Top value was constrained to 100, all other parameters were unconstrained. To obtain the dose-response curves for visual confirmation of the best-fit line, we executed a nonlinear regression fitting using the log(inhibitor) vs. response—variable slope (four parameters) equation in Prism. […] AICc analysis (built into Prism) was used to confirm the best-fitting inhibition model. […] Inhibition models were also compared via visual inspection of the fit of the calculated curves on the Michaelis-Menten plots.

[7] = tested on: cavernous smooth muscle cells; design: method as in PMID 17169663; conditions: cells isolated from mice; cited from earlier work
[8] = tested on: SH-SY5Y, SK-MEL-5, BJ-hTERT and NCI-H187 cell lines; test: mitochondrial viability assay with resazurin; assay type: cell-based, human; conditions: 0.01–10 μM, 3 days
Experimental: as §1, §2

[9] = tested on: lysate of COS-7 cells expressing human PDE5; design: method as in PMID 18778098; conditions: cited from earlier work
[10] = tested on: human PDE5 catalytic domain; design: method as in PMID 16735511; conditions: cited from earlier work

T1 sequence (P51160 whole entry): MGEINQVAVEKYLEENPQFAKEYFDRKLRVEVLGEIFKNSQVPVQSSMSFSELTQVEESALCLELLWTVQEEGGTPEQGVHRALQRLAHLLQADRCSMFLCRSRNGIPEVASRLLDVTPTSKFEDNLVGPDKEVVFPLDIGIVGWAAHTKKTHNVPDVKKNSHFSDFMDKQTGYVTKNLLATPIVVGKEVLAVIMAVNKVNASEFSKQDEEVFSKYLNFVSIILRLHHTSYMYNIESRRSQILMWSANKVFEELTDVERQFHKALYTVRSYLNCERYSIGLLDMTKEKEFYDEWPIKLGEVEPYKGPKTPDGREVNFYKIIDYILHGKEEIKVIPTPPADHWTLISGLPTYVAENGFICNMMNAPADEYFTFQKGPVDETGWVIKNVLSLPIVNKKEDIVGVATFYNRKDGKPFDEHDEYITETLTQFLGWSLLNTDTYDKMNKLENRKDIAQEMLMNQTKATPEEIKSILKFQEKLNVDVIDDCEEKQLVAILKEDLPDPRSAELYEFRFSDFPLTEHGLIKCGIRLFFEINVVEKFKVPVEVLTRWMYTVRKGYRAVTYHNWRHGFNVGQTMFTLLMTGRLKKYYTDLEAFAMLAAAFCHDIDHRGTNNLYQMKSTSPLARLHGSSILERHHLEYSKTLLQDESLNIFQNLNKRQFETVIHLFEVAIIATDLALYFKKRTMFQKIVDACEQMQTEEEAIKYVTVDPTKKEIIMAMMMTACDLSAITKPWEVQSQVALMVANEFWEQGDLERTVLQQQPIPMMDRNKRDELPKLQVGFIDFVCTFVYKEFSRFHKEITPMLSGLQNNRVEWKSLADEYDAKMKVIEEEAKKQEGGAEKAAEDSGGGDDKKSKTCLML

With `CCCc1nn(C)c2c(=O)[nH]c(-c3cc(S(=O)(=O)N4CCN(C)CC4)ccc3OCC)nc12` [sildenafil, reference compound] the “PDE6C inhibition, statistical significance” value ([1]; at 50x the PDE5 IC50, vs theoretical uninhibited mean of 100%) was “do not show any statistically significant PDE6C inhibition”, the “% PDE6C activity remaining” value ([1]; inhibitor at 50x its PDE5 IC50 (sildenafil 1.5 μM, 3 and 7 5 μM), 14 μM cGMP, 1 hour, mean ± SEM) was 78 ± 13% and the viability at 3 days, 10 μM [2] was greater than 70%. The “cellular GMP concentration, % of the GMP concentration in untreated control cells” value [3] was 7 ± 1%, the IC50 ([4]; PDE5, competitive inhibitors) was […] and the “inhibition of PDE6 isoforms” value [5] was “show inhibition of PDE6 isoforms”.
In the case of `COc1ccc(-c2oc3c(CC=C(C)C)c(O[C@@H]4O[C@H](CO)[C@@H](O)[C@H](O)[C@H]4O)cc(O)c3c(=O)c2O[C@@H]2O[C@@H](C)[C@H](O)[C@@H](O)[C@H]2O)cc1` [icariin], the IC50 [6] is given as 6000 ± 1000 nM, the viability at 3 days, 10 μM [2] is given as greater than 70% and the mode of inhibition [4] is given as “competitively inhibit PDE5”. The IC50 ([4]; human PDE5) was 1000 to 6000 nM and the “effect on cGMP levels” value [7] was “increase cGMP levels”.
For `COc1ccc(-c2oc3c(CC=C(C)C)c(O)cc(O)c3c(=O)c2OCCO)cc1` [Compound 6, 3-O-(2-Hydroxyethyl)-Icaritin], the IC50 ([6]; 1 nM PDE5 catalytic domain, 0.3 μM cGMP, 25 °C, 15 min, mean of at least three replicates ± SEM, read-out: IC50) was 400 ± 200 nM, the “Fold improved potency (fold change in IC50 compared to icariin)” value ([6]; relative to icariin) was 15 fold and the viability at 3 days ([2]; marked reduction in at least one cell line) was no more than 70%. The “effect on viability across cell lines” value [8] was “marked reduction in viability of all four cell lines”.
For Icariside II [Compound 1], the “fold improvement in PDE5 inhibition compared to icariin” value [9] is listed as 34 fold, the IC50 ([9]; lysate of COS-7 cells expressing human PDE5) is listed as 160 nM and the “mode of inhibition suggested by the crystal structure” value [10] is listed as “binds to the active site as a competitive inhibitor”.
